Data from the supplement of paper PMC11451515.

System: SEM cells
Experiment: cell viability relative to DMSO control; higher = less cytotoxic
Settings: 48 h
In short: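 Library compounds in DMSO were pin-dosed into 1536-well plates (5 μl) holding NOMO1 or SEM (500 cells/well) or P12-Ichikawa (1000 cells/well) leukemia cells, across an 11-point threefold series of 47 μM to 0.79 nM. Each cell line had been adapted for at least four passages in each medium. CellTiter-Glo One luminescence was read after 48 h at 37°C. Viability is the per-plate percentage relative to DMSO wells, with cell-free wells as background.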

[1] = HPLM + 10% dialyzed FBS, 0.000781 µM
[2] = HPLM + 10% dialyzed FBS, 0.00234 µM
[3] = HPLM + 10% dialyzed FBS, 0.00702 µM
[4] = HPLM + 10% dialyzed FBS, 0.0211 µM
[5] = HPLM + 10% dialyzed FBS, 0.0632 µM
[6] = HPLM + 10% dialyzed FBS, 0.19 µM
[7] = HPLM + 10% dialyzed FBS, 0.569 µM
[8] = HPLM + 10% dialyzed FBS, 1.71 µM
[9] = HPLM + 10% dialyzed FBS, 5.12 µM
[10] = HPLM + 10% dialyzed FBS, 15.4 µM
[11] = HPLM + 10% dialyzed FBS, 46.1 µM
[12] = RPMI 5 mM glucose + 10% FBS, 0.000781 µM
[13] = RPMI 5 mM glucose + 10% FBS, 0.00234 µM
[14] = RPMI 5 mM glucose + 10% FBS, 0.00702 µM
[15] = RPMI 5 mM glucose + 10% FBS, 0.0211 µM
[16] = RPMI 5 mM glucose + 10% FBS, 0.0632 µM
[17] = RPMI 5 mM glucose + 10% FBS, 0.19 µM
[18] = RPMI 5 mM glucose + 10% FBS, 0.569 µM
[19] = RPMI 5 mM glucose + 10% FBS, 1.71 µM
[20] = RPMI 5 mM glucose + 10% FBS, 5.12 µM
[21] = RPMI 5 mM glucose + 10% FBS, 15.4 µM
[22] = RPMI 5 mM glucose + 10% FBS, 46.1 µM
[23] = RPMI 5 mM glucose + 10% dialyzed FBS, 0.000781 µM
[24] = RPMI 5 mM glucose + 10% dialyzed FBS, 0.00234 µM
[25] = RPMI 5 mM glucose + 10% dialyzed FBS, 0.00702 µM
[26] = RPMI 5 mM glucose + 10% dialyzed FBS, 0.0211 µM
[27] = RPMI 5 mM glucose + 10% dialyzed FBS, 0.0632 µM
[28] = RPMI 5 mM glucose + 10% dialyzed FBS, 0.19 µM
[29] = RPMI 5 mM glucose + 10% dialyzed FBS, 0.569 µM
[30] = RPMI 5 mM glucose + 10% dialyzed FBS, 1.71 µM
[31] = RPMI 5 mM glucose + 10% dialyzed FBS, 5.12 µM
[32] = RPMI 5 mM glucose + 10% dialyzed FBS, 15.4 µM
[33] = RPMI 5 mM glucose + 10% dialyzed FBS, 46.1 µM

Row | SMILES | cell viability [1] | cell viability [2] | cell viability [3] | cell viability [4] | cell viability [5] | cell viability [6] | cell viability [7] | cell viability [8] | cell viability [9] | cell viability [10] | cell viability [11] | cell viability [12] | cell viability [13] | cell viability [14] | cell viability [15] | cell viability [16] | cell viability [17] | cell viability [18] | cell viability [19] | cell viability [20] | cell viability [21] | cell viability [22] | cell viability [23] | cell viability [24] | cell viability [25] | cell viability [26] | cell viability [27] | cell viability [28] | cell viability [29] | cell viability [30] | cell viability [31] | cell viability [32] | cell viability [33]
1 | COc1cc([C@@H](CC(=O)O)c2ccc(C)c(CN3C[C@@H](C)Oc4ccccc4[S+]3(=O)[O-])c2)cc2nnn(C)c12 | 97.2% | 104% | 104% | 108% | 106% | 103% | 108% | 102% | 87% | 88.4% | 70.2% | 115% | 111% | 133% | 134% | 87% | 82.6% | 83.7% | 96.6% | 67.5% | 18.1% | 14.5% | 116% | 116% | 110% | 104% | 104% | 78.5% | 83.2% | 89.7% | 74.3% | 64.4% | 53.9%
2 | Cc1nc2cc(C(=O)N3CCC4(CC3)CC(=O)c3c(cnn3C(C)C)C4)ccc2[nH]1 | 55.6% | 106% | 94.6% | 104% | 111% | 114% | 118% | 105% | 106% | 124% | 109% | – | – | – | – | – | – | – | – | – | – | – | 50% | 109% | 115% | 158% | 110% | 122% | 142% | 122% | 118% | 126% | 51.6%
3 | CCOC(=O)N1c2ccc(C(F)(F)F)cc2[C@@H](N(Cc2cc(C(F)(F)F)cc(C(F)(F)F)c2)C(=O)OC)C[C@H]1CC | 121% | 111% | 124% | 124% | 117% | 113% | 105% | 113% | 109% | 125% | 109% | 104% | 108% | 115% | 121% | 116% | 110% | 103% | 109% | 109% | 103% | 97.3% | 118% | 108% | 118% | 113% | 129% | 113% | 118% | 117% | 120% | 127% | 116%
4 | Cc1cn([C@H]2C=C[C@@H](CO)O2)c(=O)[nH]c1=O | 88.9% | 106% | 104% | 124% | 114% | 99.6% | 109% | 130% | 127% | 112% | 103% | 89.5% | 110% | 109% | 108% | 110% | 107% | 117% | 110% | 104% | 126% | 106% | 91.2% | 93.9% | 104% | 112% | 118% | 96.4% | 107% | 125% | 116% | 104% | 74.2%
5 | COC(=O)Nc1nc2cc(C(=O)c3ccc(F)cc3)ccc2[nH]1 | 103% | 95.4% | 102% | 91.1% | 98.6% | 97.9% | 51.3% | 40.1% | 33.2% | 26.2% | 47.8% | 95.5% | 105% | 110% | 100% | 92.8% | 95.4% | 77.6% | 40.4% | 32.7% | 28.2% | 52% | 83.6% | 98.8% | 103% | 117% | 115% | 109% | 79.3% | 52% | 45.8% | 37.7% | 52.1%
6 | CCOC(=O)[C@@]1(CCCCCCOc2ccc(Cl)cc2)CO1 | 95.4% | 103% | 111% | 112% | 113% | 95.9% | 115% | 94.3% | 95.2% | 51.3% | 23.9% | 114% | 119% | 126% | 120% | 125% | 116% | 115% | 98.5% | 102% | 32.3% | 12.6% | 102% | 107% | 107% | 106% | 103% | 107% | 114% | 102% | 95% | 50.4% | 17%
